Test results as given in paper PMC9268429, “Liposomal Form of 2,4-Dinitrophenol Lipophilic Derivatives as a Promising Therapeutic Agent for ATP Synthesis Inhibition” (Nanomaterials, 2022).
“Also recorded” adds a separate entry of the source. Read-outs that look alike come from different tables or passages of the source.

Columns and labels:
4T1-Luc cells [1] = test: cells; format: cell-based, murine; details: Mus musculus, read-out: IC50 (cytotoxicity)
Protocol: (§1) Murine breast cancer cell line expressing luciferase (4T1-Luc) and hepatocytes isolated from the normal liver of a 3-month-old mouse (AML12) were purchased from ATCC, (CRL-2539-LUC2 and CRL-2254). The cells were cultivated in RPMI 1640 or DMEM-F12 with 10% FBS, 4.5 g/L glucose, 100 U/mL penicillin, 100 µg/mL streptomycin and 0.25 µg/mL Gibco amphotericin at 37 °C, 5% CO2.
(§2) 4T1-Luc or AML12 cells were seeded in a 96-well plate (1 × 10^4 cells/well) in 200 µL/well of complete RPMI or DMEM-F12 medium and incubated at 37 °C with 5% CO2 for 48 h. Then, the medium was replaced with 100 µL/well RPMI or DMEM-F12 medium in the absence (control) or presence of various amounts of the tested compounds and incubated at 37 °C with 5% CO2 for 24 h; 10 µL/well WST-1 solution (CELLPRO-RO Roche, St. Louis, MO, USA) was added to each well and incubated under culture conditions for 2 h. The absorbance of the samples was measured at 450 nm.

4T1-Luc cells [2] = format: cell-based, murine; details: 200 µM, 1% DMSO; for ATP synthesis inhibition (decrease of luminescence): free compounds, 2 h and 4 h
Protocol: ATP synthesis in real time in vitro was monitored by modified luciferin–luciferase assay using 4T1-Luc cells expressing luciferase. Briefly, 4T1-Luc cells were seeded in black 96-well plates (Greiner, France) (1 × 10^4 cells/well) 48 h before the experiment. Cell medium was replaced with the mixtures (150 µL/well) of D-luciferin (150 µg/mL, saturating concentration) alone (control) and with examined substance (200 µM of free 2,4-DNP or its derivatives or their liposomal forms) in RPMI 1640 medium (10% FBS, 4.5 g/L glucose, 100 U/mL penicillin, 100 µg/mL streptomycin и 0.25 µg/mL Gibco amphotericin), plate was put into the Luminometer chamber (EnSpire multimode plate reader, Perkin Elmer, USA), and kinetic of luciferin–luciferase reaction was detected at 37 °C (flashes/time 0.1 s). 2,4-DNP esters were dissolved in DMSO before the use. The total concentration of DMSO in final solution per well was 1%.
The inhibition effect was expressed as (3) Decrease of luminescence=[RLU]max−[RLU]t/[RLU]max×100%, where [RLU]max—relative luminescence units at the maximum of the kinetic profile; [RLU]t—relative luminescence units at certain time point.

in vitro = format: cell-based, mouse; details: mouse; AML12, 24 h incubation, WST-1, free compounds in 1% DMSO; read-out: IC50 (cytotoxicity)
Protocol: as §1, §2

[3] = format: physicochemical; details: octanol/distilled water (pH 5.5), mean ± StD
Protocol: Lipophilicity of the obtained 2,4-DNP derivatives was measured by octanol–water equilibrium method. Before the experiment, we mixed octanol and water in a flask, shook it vigorously, and then waited for the two phases separation. After reaching of equilibrium, the two phases are mutually saturated with one another. Next, 0.5 mg of each test compound was dissolved in 1 mL of octanol phase, and then 1 mL of distillated water phase was added (pH 5.5) and properly stirred for 1 min three times. The mixture was incubated under vigorous stirring for 1 h. Next, the mixture was centrifugated to separate octanol–water phases. The concentration of the compound was determined in octanol and water using HPLC method. The octanol–water partition coefficient was estimated as follows:(1) LogP=Log[C]octanol/[C]water
Concentration of 2,4-DNP and its esters was measured using high-performance liquid chromatography (HPLC) (Knauer Smart line, Berlin, Germany) with UV-detector and a reversed-phase shim-pack 100-5-C18 column (Kromasil, […], particle size 5 μm). The mobile phase was a mixture of acetonitrile and 0.1% citric acid water solution (60/40, v/v). The mobile phase flow-rate was 0.8 mL/min, the injection volume was […], and the detection wavelength was set at 275 nm. Chromatograms were analyzed using ChromGate version 3.3.2 software (Berlin, Germany). The retention time is 4.5 min for 2,4-DNP and 6.5 min for esters.

luciferase = luciferase (Photinus pyralis, UniProt P08659); test: Control: addition to the luciferin–luciferase mixture; format: biochemical; details: 200 µM added to the luciferin–luciferase mixture; data are not presented
AML12 cells = test: in vitro; format: cell-based, mouse; details: AML12, 24 h incubation, WST-1, free compounds in 1% DMSO; read-out: IC50 (cytotoxicity)
Protocol: as §1, §2

[4] = pH 7.4
Protocol: Procedure: All samples were dispersed in 10 mM PBS (pH = 7. 4). Then the aliquots were incubated at a room tempera-
ture and at 65 °C for 1 h. After that we made several TLC for each sample representing heated and non-heated sub-

Sequence of luciferase (P08659 whole entry): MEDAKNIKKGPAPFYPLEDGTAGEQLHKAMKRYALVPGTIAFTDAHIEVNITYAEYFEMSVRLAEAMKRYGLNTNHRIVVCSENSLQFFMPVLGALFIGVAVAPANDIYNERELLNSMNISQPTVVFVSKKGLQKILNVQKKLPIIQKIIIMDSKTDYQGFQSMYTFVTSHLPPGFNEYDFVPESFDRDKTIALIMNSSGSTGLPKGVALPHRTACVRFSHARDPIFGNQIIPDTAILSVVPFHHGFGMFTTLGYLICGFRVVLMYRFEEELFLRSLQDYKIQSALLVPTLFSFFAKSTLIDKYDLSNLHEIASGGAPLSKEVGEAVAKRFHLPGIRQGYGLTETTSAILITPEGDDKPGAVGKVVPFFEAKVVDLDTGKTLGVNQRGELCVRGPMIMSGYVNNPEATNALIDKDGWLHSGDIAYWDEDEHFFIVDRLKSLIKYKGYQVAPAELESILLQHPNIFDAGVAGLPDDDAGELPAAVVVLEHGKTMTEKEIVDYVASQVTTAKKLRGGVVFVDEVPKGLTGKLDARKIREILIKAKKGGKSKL

Structure (SMILES): CCCCCCCCCCCCCCCC(=O)Oc1ccc([N+](=O)[O-])cc1[N+](=O)[O-] [2,4-DNP-C16, 2,4-DNP Palmitic Acid Ester]
- IC50 (4T1-Luc cells [1]; 24 h incubation, WST-1, free compounds in 1% DMSO): 100 to 150 µM
- ATP synthesis inhibition (decrease of luminescence) (4T1-Luc cells [2]): neglectable decrease in the ATP level
- IC50 (in vitro): ~200 µM
- LogPoct [3]: 5.18 ± 0.79

Structure (SMILES): O=[N+]([O-])c1ccc(O)c([N+](=O)[O-])c1 [2,4-DNP, 2,4-dinitrophenol]
- IC50 (4T1-Luc cells [1]; 24 h): ~400 µM
- IC50 at 24 h (in vitro): 500 to 600 µM
- Luciferase activity (luciferase): did not influence the luciferase activity
- LogPoct [3]: 1.61 ± 0.30

Structure (SMILES): CCCCCCCCCCCCCCCC(=O)O [palmitic acid, Palmitic acid, reference compound]
- ATP level after free carboxylic acids (4T1-Luc cells [2]): did not show an increase in the ATP level

Structure (SMILES): CCC(=O)O [propionic acid, Propionic acid, reference compound]
- ATP level after free carboxylic acids (4T1-Luc cells [2]): did not show an increase in the ATP level

Structure (SMILES): CCCCCC(=O)Oc1ccc([N+](=O)[O-])cc1[N+](=O)[O-] [2,4-DNP-C6, 2,4-Dinitrophenol Caproic Acid Ester]
- ATP synthesis inhibition (decrease of luminescence) (4T1-Luc cells [2]): higher inhibition effects in comparison to the free 2,4-DNP; also recorded: sustained inhibition of ATP synthesis
- IC50 (AML12 cells): ~200 µM
- LogPoct [3]: 3.07 ± 0.31

Structure (SMILES): CCCCCC(=O)O [caproic acid, Hexanoic acid, reference compound]
- ATP level after free carboxylic acids (4T1-Luc cells [2]): did not show an increase in the ATP level

Structure (SMILES): CCC(=O)Oc1ccc([N+](=O)[O-])cc1[N+](=O)[O-] [2,4-DNP-C3, 2,4-Dinitrophenol Propionic Acid Ester]
- Ester stability (hydrolysis) [4]: most unstable ester
- ATP synthesis inhibition (decrease of luminescence) (4T1-Luc cells [2]): higher inhibition effects in comparison to the free 2,4-DNP
- IC50 (AML12 cells): ~200 µM
- LogPoct [3]: 1.91 ± 0.24
